From PMC5957530 (FEBS letters, 2017)
Like-named read-outs stand apart in the source and are kept apart here.

T1: cysteine synthase complex (CSC; E. coli CysE in complex with E. coli CysK) (Escherichia coli, UniProt P0A9D4)
T1 sequence (P0A9D4 1-273): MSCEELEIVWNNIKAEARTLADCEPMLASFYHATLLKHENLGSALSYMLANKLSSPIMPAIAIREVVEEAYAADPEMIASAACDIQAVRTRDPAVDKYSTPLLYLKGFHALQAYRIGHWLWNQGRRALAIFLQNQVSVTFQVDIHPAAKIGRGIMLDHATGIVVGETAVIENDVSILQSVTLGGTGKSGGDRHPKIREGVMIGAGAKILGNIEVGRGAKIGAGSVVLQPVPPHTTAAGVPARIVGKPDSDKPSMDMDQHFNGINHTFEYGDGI
T1 sequence (P0ABK5 1-323 partner): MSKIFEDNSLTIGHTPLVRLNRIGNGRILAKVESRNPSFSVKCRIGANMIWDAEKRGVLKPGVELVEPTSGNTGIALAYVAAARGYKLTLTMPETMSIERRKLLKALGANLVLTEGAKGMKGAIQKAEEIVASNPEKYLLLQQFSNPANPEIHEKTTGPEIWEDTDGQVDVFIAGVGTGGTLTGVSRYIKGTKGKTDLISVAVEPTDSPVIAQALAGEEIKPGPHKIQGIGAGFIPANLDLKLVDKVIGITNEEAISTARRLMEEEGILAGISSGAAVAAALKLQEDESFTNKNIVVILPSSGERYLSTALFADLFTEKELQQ

T2: Escherichia coli CysE (Escherichia coli, UniProt P0A9D4)
T2 sequence (P0A9D4 1-273): T1 sequence (P0A9D4 1-273)

B1: Escherichia coli CysE (Escherichia coli K-12) (protein)
chain: T1 sequence (P0A9D4 1-273)
B2: cysteine synthase complex (CSC; E. coli CysE in complex with E. coli CysK) (Escherichia coli K-12) (protein)
chain: T1 sequence (P0A9D4 1-273)
B3: serine acetyltransferase (CysE) from E. coli (enzyme, UniProt P0A9D4 1-273, looked up)
chain: T1 sequence (P0A9D4 1-273)
B4: O-acetylserine sulfhydrylase-A (CysK) from E. coli (enzyme, UniProt P0ABK5 1-323, looked up)
chain: T1 sequence (P0ABK5 1-323 partner)
modifications: bound pyridoxal 5'-phosphate (PLP) cofactor

How the values were obtained:
[1] = biological target: T1, cysteine synthase complex (CSC; E. coli CysE in complex with E. coli CysK); test: L-Ser acetylation steady-state kinetics of CysE in complex with CysK; details: for apparent kcat: per CysE hexamer
Escherichia coli CysE = biological target: T2, Escherichia coli CysE; test: L-Ser acetylation steady-state kinetics of isolated CysE; details: for apparent kcat: per CysE hexamer
plant CysE = plant CysE in the CSC vs free; cited from earlier work
CysK = CysK (Escherichia coli, UniProt P0ABK5); test: Fluorescence titration of CysK; type: binding; details: in the presence of 10 μM L-Cys
[2] = substrate: N[C@@H](CO)C(=O)O; test: purified protein, by the assay type; details: 20.0 °C
[3] = biological target: B4; test: other fluorescence titration
SEC = biological target: the molecule itself; test: SEC
[4] = biological target: B4; test: inhibition of enzyme activity

N[C@@H](CO)C(=O)O [L-Ser, L-serine]
Kd [1]: 600 ± 200 µM
Ki [1]: 16000 ± 5000 µM
apparent kcat ([1]; +CysK fivefold molar excess, L-Ser varied, acetyl-CoA […]): 228 ± 34 s⁻¹
increase in the L-Ser inhibition constant, CSC vs free CysE ([1]; CysE in complex with CysK): four fold
Kd (Escherichia coli CysE): 500 ± 200 µM
apparent kcat (Escherichia coli CysE; -CysK, L-Ser varied, acetyl-CoA […]): 228 ± 60 s⁻¹

N[C@@H](CS)C(=O)O [L-Cys, L-cysteine]
fold increase of L-Cys Ki of plant CysE in the CSC (plant CysE): more than 35 fold
increase in L-Cys IC50 of plant CysE in the CSC (plant CysE): fourfold
IC50 [1]: 0.7 µM
increase of L-Cys IC50 in the CSC vs free CysE ([1]; presence of molar excess CysK): fourfold
fold increase in the dissociation constant of the CSC (CysK): 10 fold
IC50 (Escherichia coli CysE; IC50 for L-Cys, free CysE): 0.18 µM
IC50 (Escherichia coli CysE; L-Cys concentration around the IC50, 0.1 mM L-Ser (physiological), Fig. S5B): ~0.07 µM
IC50 (Escherichia coli CysE; L-Cys concentration around the IC50, 20 mM L-Ser (saturating), Fig. S5B): ~0.5 µM

CC(=O)SCCNC(=O)CCNC(=O)[C@H](O)C(C)(C)COP(=O)(O)OP(=O)(O)OC[C@H]1O[C@@H](n2cnc3c(N)ncnc32)[C@H](O)[C@@H]1OP(=O)(O)O [Acetyl-CoA, acetyl-CoA]
apparent kcat ([1]; +CysK fivefold molar excess, acetyl-CoA varied, L-Ser 20 mM): 416 ± 38 s⁻¹
Km ([1]; read-out: KM,acCoA, +CysK fivefold molar excess, global fit Eqn 2): 300 ± 100 µM
Kd ([1]; read-out: Kd,acCoa, +CysK fivefold molar excess, global fit Eqn 2): 100 ± 100 µM
apparent kcat (Escherichia coli CysE; -CysK, acetyl-CoA varied, L-Ser 20 mM): 306 ± 35 s⁻¹
Km (Escherichia coli CysE; read-out: KM,acCoA, -CysK, global fit Eqn 2): 300 ± 100 µM
Kd (Escherichia coli CysE; read-out: Kd,acCoa, -CysK, dissociation from unligated enzyme, global fit Eqn 2): 100 ± 100 µM
Km (Escherichia coli CysE; read-out: apparent KM, -CysK, acetyl-CoA varied, L-Ser 20 mM, 20 °C): 1400 ± 400 µM

B1
Km ([2]; other: -CysK, L-Ser varied, acetyl-CoA […]): 1700 ± 700 µM
Km ([2]; other: -CysK, global fit, random-order mechanism (Eqn 2)): 1300 ± 200 µM

B2
Km ([2]; other: +CysK fivefold molar excess, L-Ser varied, acetyl-CoA […]): 1100 ± 400 µM
Km ([2]; other: +CysK fivefold molar excess, global fit Eqn 2): 1200 ± 200 µM

B3
stoichiometry N [3]: ~1.6 CysE:CysK
stoichiometry N (SEC): 6
Ki app [4]: 0.0087 ± 0.001 µM

B4
stoichiometry N (SEC): 2
